Experimental data reported in the supplement of paper PMC8671470.

What was measured:
Conditions in all cases: 72 h
BV-173 [1] = system: BV-173
Summary of the method: (§1)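 Fifteen myeloid leukaemia cell lines were seeded in RPMI 1640 at densities titrated to the linear growth range and placed in 384-well plates with acoustically pre-printed compounds at five tenfold doses from 1 to 10,000 nM, in duplicate. After 72 h at 37 °C with 5% CO2, luminescent ATP viability was normalised to vehicle and to a positive control at 10 µM, and curves were fitted with a four-parameter log-logistic model. The IC50 was obtained from these fits.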

HEL [2] = system: HEL
Summary of the method: as §1

HL-60 [3] = system: HL-60
Summary of the method: as §1

K-562 [4] = system: K-562
Summary of the method: as §1

KCL-22 = system: KCL-22
Summary of the method: as §1

KG-1 = system: KG-1
Summary of the method: as §1

KU-812 [5] = system: KU-812
Summary of the method: as §1

LAMA-84 [6] = system: LAMA-84
Summary of the method: as §1

ML-2 [7] = system: ML-2
Summary of the method: as §1

MOLM-13 = system: MOLM-13
Summary of the method: as §1

MV4-11 [8] = system: MV4-11
Summary of the method: as §1

Mono-Mac-6 [9] = system: Mono-Mac-6
Summary of the method: as §1

NOMO-1 [10] = system: NOMO-1
Summary of the method: as §1

SHI-1 [11] = system: SHI-1
Summary of the method: as §1

THP-1 [12] = system: THP-1
Summary of the method: as §1

HL-60 [13] = assay: cell viability (% survival relative to DMSO control); higher = less cytotoxic
Summary of the method: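 In 384-well plates, the full library was rescreened in duplicate on HL-60 cells in RPMI 1640 with 10% FBS, at 1–10,000 nM in five tenfold concentrations, for 72 h at 37 °C, 5% CO2. Each run also held DMSO or 100 nM of one of three metabolic inhibitors. Viability was measured by CellTiter-Glo and normalised to DMSO wells and to wells with proteasome inhibitor, present at 10 μM. Any area under the curve comes from four-parameter log-logistic fitting with drc and PharmacoGx.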

BV-173 [14] = assay: cell viability (% survival relative to DMSO control, bortezomib = 0%); higher = less cytotoxic
Summary of the method: (§2)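 Fifteen myeloid leukaemia cell lines (10 AML, 5 CML) were seeded at a density titrated to the linear growth range into 384-well plates pre-printed with compounds at 1, 10, 100, 1000 or 10000 nM in duplicate. Plates were incubated for 72 h at 37 °C with 5% CO2. Viability was then read by CellTiter-Glo luminescence. Each value is percent survival averaged over the duplicates, with vehicle set to 100% and a 10 µM positive control to 0%.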

HEL [15] = assay: as above
Summary of the method: as §2

HL-60 [16] = assay: as above
Summary of the method: as §2

K-562 [17] = assay: as above
Summary of the method: as §2

KU-812 [18] = assay: as above
Summary of the method: as §2

LAMA-84 [19] = assay: as above
Summary of the method: as §2

ML-2 [20] = assay: as above
Summary of the method: as §2

MV4-11 [21] = assay: as above
Summary of the method: as §2

Mono-Mac-6 [22] = assay: as above
Summary of the method: as §2

NOMO-1 [23] = assay: as above
Summary of the method: as §2

SHI-1 [24] = assay: as above
Summary of the method: as §2

THP-1 [25] = assay: as above
Summary of the method: as §2

NCCCC(N)(C(=O)O)C(F)F (stereo not given) [Difluoromethylornithine]
Conditions	IC50 (cell viability) [µM]
BV-173 [1]	> 10
HEL [2]	> 10
HL-60 [3]	> 10
K-562 [4]	> 10
KCL-22	> 10
KG-1	> 10
KU-812 [5]	> 10
LAMA-84 [6]	> 10
ML-2 [7]	> 10
MOLM-13	> 10
MV4-11 [8]	> 10
Mono-Mac-6 [9]	> 10
NOMO-1 [10]	> 10
SHI-1 [11]	> 10
THP-1 [12]	> 10

cell viability [%], HL-60 [13]
Conditions	0.001 µM	0.01 µM	0.1 µM	1 µM	10 µM
co-treatment: AZD3965 100 nM	105	100.5	100	93.5	96.8
co-treatment: DMSO vehicle	103	97.01	104	101	103
co-treatment: GSK2194069 100 nM	101	98.8	104	95.6	101
co-treatment: pictilisib 100 nM	100	92.3	97.2	92.6	94.6

cell viability [%]
Conditions	1 nM	10 nM	100 nM	1000 nM	10000 nM
BV-173 [14]	97.1	91.2	96.8	95.2	105
HEL [15]	100	96.8	90.1	104	95.9
HL-60 [16]	93.6	123	98.7	88.8	99.5
K-562 [17]	99.3	104	97	107	126
KU-812 [18]	116	96.2	83.1	99.3	105
LAMA-84 [19]	107	99.2	91.8	102	110
ML-2 [20]	93.5	79.1	93.4	92.1	96.5
MV4-11 [21]	93.8	98.9	81.3	85.5	109
Mono-Mac-6 [22]	98.2	92.7	94.2	98.5	93.3
NOMO-1 [23]	99.5	91.5	102	95.6	99.7
SHI-1 [24]	100	100	90.9	104	106
THP-1 [25]	96.5	95.6	98.9	100	104

N#CC(C#N)=NNc1ccc(OC(F)(F)F)cc1 [FCCP]
Conditions	IC50 (cell viability) [µM]
BV-173 [1]	2.05
HEL [2]	1.96
HL-60 [3]	2.66
K-562 [4]	1.73
KCL-22	1.82
KG-1	2.34
KU-812 [5]	1.39
LAMA-84 [6]	2.01
ML-2 [7]	2.09
MOLM-13	2.11
MV4-11 [8]	2.44
Mono-Mac-6 [9]	2.38
NOMO-1 [10]	3.01
SHI-1 [11]	4.02
THP-1 [12]	3.77

cell viability [%], HL-60 [13]
Conditions	0.001 µM	0.01 µM	0.1 µM	1 µM	10 µM
co-treatment: AZD3965 100 nM	101	102	82.8	110	8.55
co-treatment: DMSO vehicle	99.6	94.6	99.9	104	10.3
co-treatment: GSK2194069 100 nM	97.2	102	80.2	102.3	13.8
co-treatment: pictilisib 100 nM	98.3	98.5	94.6	104	9.69

cell viability [%]
Conditions	1 nM	10 nM	100 nM	1000 nM	10000 nM
BV-173 [14]	119	94.9	96.7	82	-0.482
HEL [15]	120	94.1	92.7	79.9	1.52
HL-60 [16]	88.2	92.4	109	88.5	0.501
K-562 [17]	109	93.4	92.1	74	1.97
KU-812 [18]	108	98	92.4	65.7	0.082
LAMA-84 [19]	100	97.6	94.2	79.1	0.398
ML-2 [20]	104	96.5	105	82.3	0.124
MV4-11 [21]	104	101	98.9	88.5	-1.01
Mono-Mac-6 [22]	100	92	96.1	82.8	3.03
NOMO-1 [23]	100	105	102	93.5	4.3
SHI-1 [24]	94.6	103	101	91.5	35.1
THP-1 [25]	104	94.3	102	102	7.73

CCCc1cc(-c2nc(-c3ccc(C)cc3)cs2)ccn1 [Fatostatin]
Conditions	IC50 (cell viability) [µM]
BV-173 [1]	6.07
HEL [2]	> 10
HL-60 [3]	8.84
K-562 [4]	> 10
KCL-22	> 10
KG-1	2.76
KU-812 [5]	> 10
LAMA-84 [6]	> 10
ML-2 [7]	6.69
MOLM-13	> 10
MV4-11 [8]	> 10
Mono-Mac-6 [9]	> 10
NOMO-1 [10]	> 10
SHI-1 [11]	4.85
THP-1 [12]	> 10

cell viability [%], HL-60 [13]
Conditions	0.001 µM	0.01 µM	0.1 µM	1 µM	10 µM
co-treatment: AZD3965 100 nM	75.1	101.7	102	103	79.9
co-treatment: DMSO vehicle	92.9	96.1	101	98.5	94.39
co-treatment: GSK2194069 100 nM	95.9	94.22	96.1	92.5	70.7
co-treatment: pictilisib 100 nM	90.3	97.8	105	96.7	63.5

cell viability [%]
Conditions	1 nM	10 nM	100 nM	1000 nM	10000 nM
BV-173 [14]	90.6	98.4	94.9	112	24.8
HEL [15]	92.6	97.8	92.1	108	90.4
HL-60 [16]	110	84.6	95.5	105	43.1
K-562 [17]	103	95.9	102	117	60.2
KU-812 [18]	100	101	87.2	106	74.1
LAMA-84 [19]	105	92.2	104	109	79.8
ML-2 [20]	93.4	101	92	111	29.5
MV4-11 [21]	105	95.9	93.2	98.2	65.7
Mono-Mac-6 [22]	94.5	97.3	101	111	87.8
NOMO-1 [23]	98.3	91.3	104	111	97.4
SHI-1 [24]	106	91.7	105	114	14.4
THP-1 [25]	95.2	90.1	108	98.5	81.1
